Measured values reported in patent US6428971B1, “Teichoic acid enzymes and assays” (priority 1996, dated 2002).

Experiments:
TAP [1] = biological target: T1, TAP (Bacillus subtilis, UniProt P13485); assay: TAP enzyme assay (acid precipitation of radioactive lipoteichoic acid); type: biochemical, B. subtilis; conditions: lipoteichoic acid from either B. subtilis, S. aureus, or E. faecalis
T1 construct: corresponds to a 2163 bp open reading frame beginning with ATG at bp 100 and ending with TAA at bp 2263; made in house; host or cells: E. coli DH10B / pBSRODC1 (pTrc99A vector); membrane preparation, 2M NaCl extract, High Q fraction
T1 sequence (P13485 26-746 A616V): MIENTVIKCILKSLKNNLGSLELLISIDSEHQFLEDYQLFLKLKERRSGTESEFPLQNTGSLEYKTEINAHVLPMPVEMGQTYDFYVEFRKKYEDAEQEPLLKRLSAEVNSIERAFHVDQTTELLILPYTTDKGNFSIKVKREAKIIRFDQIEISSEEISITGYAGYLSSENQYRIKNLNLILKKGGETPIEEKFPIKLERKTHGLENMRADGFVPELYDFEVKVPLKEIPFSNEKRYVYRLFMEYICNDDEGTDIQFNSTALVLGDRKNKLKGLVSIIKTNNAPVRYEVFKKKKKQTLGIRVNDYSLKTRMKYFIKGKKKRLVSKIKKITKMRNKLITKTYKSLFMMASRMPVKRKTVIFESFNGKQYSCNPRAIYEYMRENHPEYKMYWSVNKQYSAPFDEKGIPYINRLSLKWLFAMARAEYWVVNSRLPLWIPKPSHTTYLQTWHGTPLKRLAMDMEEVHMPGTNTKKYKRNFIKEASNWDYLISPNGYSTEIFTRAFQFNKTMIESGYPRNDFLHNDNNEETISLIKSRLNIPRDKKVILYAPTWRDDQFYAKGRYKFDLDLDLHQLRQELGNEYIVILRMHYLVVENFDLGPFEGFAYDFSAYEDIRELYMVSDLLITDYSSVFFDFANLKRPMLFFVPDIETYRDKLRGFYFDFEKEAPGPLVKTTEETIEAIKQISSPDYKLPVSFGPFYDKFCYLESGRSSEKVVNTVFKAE
Method: (§1) The enzymatic activity of TAP was assayed using CDP[^3H]glycerol as the glycerolphosphate donor and B. subtilis lipoteichoic acid as the acceptor. If active, the recombinant TAP enzyme should lengthen lipoteichoic acid with radioactive glycerolphosphate monomers, producing acid precipitable radioactivity. […] Extraction of TAP from the E. coli membrane with 2 M NaCl produced an active TAP preparation that could be separated from the cell membrane by ultracentrifugation.
(§2) The method of Burger and Glaser was generally followed. Burger M M, Glaser L. “The synthesis of teichoic acids” J. Biol. Chem. (1964) vol. 239, pp. 3168-3177, incorporated by reference. A typical assay contained 1-100 μl of enzyme, 10 μl of lipoteichoic acid (1 mg/ml B. subtilis lipoteichoic acid [Sigma] in water), 25 μl of CDP[^3H]glycerol (10 mM CDPglycerol Specific Activity 8.8 μCi/μMole), and enough Buffer A to bring the total volume to 250 μl. The reaction was incubated at 37° C. for one hour, mixed with 80 μl of 3N perchloric acid, and placed on ice for 5 min. The acid treated sample was spotted on a GF/C filter and washed with 4×5 ml of 0.15 N perchloric acid before liquid scintillation counting. Control reactions lacking either lipoteichoic acid or CDP[^3H]glycerol were included as negative controls.
(§3) The method of Burger and Glaser was generally followed. […]

TAP [2] = biological target: T2, TAP (Bacillus subtilis, UniProt P13485, A616V); assay: as above; type: biochemical, B. subtilis; conditions: alanine ester removed in 0.1M Tris-HCl pH 8.0, 24 hr, 37° C.
T2 construct: corresponds to a 2163 bp open reading frame beginning with ATG at bp 100 and ending with TAA at bp 2263; made in house; host or cells: E. coli DH10B / pBSRODC1 (pTrc99A vector); membrane preparation, 2M NaCl extract, High Q fraction
T2 sequence (P13485 26-746 A616V): as above
Method: as §1, §2, §3

[3] = Storage stability of the TAP enzyme; type: physicochemical; conditions: stored in ice

With lipoteichoic acid the “acceptor of CDP[3H]glycerol (substrate for TAP)” value (TAP [1]) was “could serve as an acceptor” and the “effect of alanine removal from lipoteichoic acid on activity of the recombinant TAP enzyme” value (TAP [2]) was “improved activity”.

B1: TAP: recombinant B. subtilis rodC (tagF) gene product overexpressed in E. coli DH10B/pBSRODC1, SEQ ID NO 2 with alanine to valine change (protein)
chain: MSLVVDTNKRKQKGKSFYTEEQKKVMIENTVIKCILKSLKNNLGSLELLISIDSEHQFLEDYQLFLKLKERRSGTESEFPLQNTGSLEYKTEINAHVLPMPVEMGQTYDFYVEFRKKYEDAEQEPLLKRLSAEVNSIERAFHVDQTTELLILPYTTDKGNFSIKVKREAKIIRFDQIEISSEEISITGYAGYLSSENQYRIKNLNLILKKGGETPIEEKFPIKLERKTHGLENMRADGFVPELYDFEVKVPLKEIPFSNEKRYVYRLFMEYICNDDEGTDIQFNSTALVLGDRKNKLKGLVSIIKTNNAPVRYEVFKKKKKQTLGIRVNDYSLKTRMKYFIKGKKKRLVSKIKKITKMRNKLITKTYKSLFMMASRMPVKRKTVIFESFNGKQYSCNPRAIYEYMRENHPEYKMYWSVNKQYSAPFDEKGIPYINRLSLKWLFAMARAEYWVVNSRLPLWIPKPSHTTYLQTWHGTPLKRLAMDMEEVHMPGTNTKKYKRNFIKEASNWDYLISPNGYSTEIFTRAFQFNKTMIESGYPRNDFLHNDNNEETISLIKSRLNIPRDKKVILYAPTWRDDQFYAKGRYKFDLDLDLHQLRQELGNEYIVILRMHYLVAENFDLGPFEGFAYDFSAYEDIRELYMVSDLLITDYSSVFFDFANLKRPMLFFVPDIETYRDKLRGFYFDFEKEAPGPLVKTTEETIEAIKQISSPDYKLPVSFGPFYDKFCYLESGRSSEKVVNTVFKAE
For B1, the “stability of the enzyme on storage” value [3] was “stable for two weeks”.
